Patent US12403132B2, “Methods of treating bone marrow failure syndromes and compositions for use in the same” (The Board of Trustees of the Leland Stanford Junior …, priority 2020, dated 2025)
Blank lines part the entries; values can stand above or below the compound they belong to.

Target: T1, NLK (Homo sapiens, UniProt Q9UBE8)
T1 sequence (Q9UBE8 1-527): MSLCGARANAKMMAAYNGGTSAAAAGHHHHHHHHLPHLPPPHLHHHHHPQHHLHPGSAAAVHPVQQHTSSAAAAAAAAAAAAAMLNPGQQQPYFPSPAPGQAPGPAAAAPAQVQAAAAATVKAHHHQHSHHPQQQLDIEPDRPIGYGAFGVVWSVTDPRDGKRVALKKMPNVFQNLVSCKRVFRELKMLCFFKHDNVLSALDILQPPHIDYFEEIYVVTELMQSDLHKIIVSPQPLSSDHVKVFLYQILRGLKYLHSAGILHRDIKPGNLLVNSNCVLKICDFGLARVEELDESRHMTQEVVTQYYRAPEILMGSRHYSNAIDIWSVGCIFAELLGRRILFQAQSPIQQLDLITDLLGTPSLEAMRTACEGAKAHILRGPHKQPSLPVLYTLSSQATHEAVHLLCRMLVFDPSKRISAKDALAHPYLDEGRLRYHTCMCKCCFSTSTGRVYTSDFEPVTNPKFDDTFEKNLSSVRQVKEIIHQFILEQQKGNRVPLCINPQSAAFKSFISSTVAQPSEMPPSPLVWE
Experiment: NLK in vitro kinase assay, compound added to active NLK immunopurified from Kp53A1 cells
Type: biochemical
Design: inhibition of NLK kinase activity in vitro: dose or concentration left out as unconfirmed
Conditions: for NLK activity with compound added to activated NLK in in vitro kinase assay: 0, 50 nM, 50 μM or 50 mM, 30 mins
Experimental: FIG. 6. […] (a) Schematic of assay utilized to screen compounds for effects on erythroid progenitor cell expansion. Lin-Kit+fetal liver cells were obtained from mouse embryos expressing tet-on shRNA against RPS19, at day E14.5-15.5. Cells were plated at 2000 cell per well in 96-well plates in the presence or absence of doxycycline. Relative amounts of live cells were quantified by luciferase-based Cell titer-Glo® assay. (b) TGFβR1 inhibitors including SB431542 were assessed for their ability to increase cell expansion in RPS19-insuffiency. As a control, untreated (no doxycycline) is represented at the far left while all other samples were treated with doxycycline to induce RPS19-insufficiency. (c) Kit+ erythroid progenitors were grown in the absence of doxycycline and in the presence of 10 μM of indicated compound. As a comparison, samples with no inhibitor added are represented in grey. In addition, cells were either left untreated, or treated with 5 ng/ml of TGFβ1 for 5 days before being subjected to Cell TiterGlo® assay. (d) Schematic indicating Smad2 and Smad3 serve as substrates for activated TGFβR1 while NLK, c-Myb and raptor serve as substrates for activated NLK (upper panel). K562 cells were stimulated with 5 ng/ml TGFβ1 for 10 min and TGFβR1 was immunopurified after cell lysis and protein normalization. TGFβR1 was added to purified Smad2 (middle panel) and Smad3 (lower panel) in the presence of ATP and Mg^2+ at 37° C. for 30 min. As per NLK kinase assay, phosphorylation of substrates was detected by antibody raised against phosphorylated serine residues. Compounds with inhibitory properties against TGFβR1, other TGFB pathway factors, or NLK expression were added to the kinase reactions at concentrations known to inhibit TGFB signaling.
FIG. 10. […] (Panel A) Control (shLuc—grey columns) or RPS19-insufficient (shRPS19-—black columns) progenitors were differentiated in erythroid media alone, vehicle or vehicle containing 50 mM metformin or 5 uM SD208 for 5 days. 5000 cells per treatment were lysed and immunopurified NLK was subjected to in vitro kinase assay to determine phosphorylation potential against 3 recognized NLK substrates; NLK itself (upper), c-Myb (middle) or raptor (bottom). (Panel B) Simultaneously, qRT-PCR was performed to examine NLK (upper) and RPS19 (lower) mRNA expression. (Panel C) Active NLK was purified from activated Kp53A1 cells and subjected to in vitro kinase assay in the presence of 0, 50 nM, 50 μM, or 50 mM metformin or SD208. The phosphorylation of NLK (upper), c-Myb (middle) and raptor (lower) was determined after 30 mins. (Panel D) CD34+ progenitors were transduced with a combination of either shRNA against luciferase (shLuc—grey columns) or RPS19 (shRPS19—black columns) and siRNA against a non-targeting sequence (NT) or NLK (siNLK). After 14 days differentiation in the presence or absence of metformin, cells were counted and the percentage of cells with surface expression of CD235 and CD11b were determined by flow cytometry, to yield the number of CD235+ erythroid (upper) and CD11b+ myeloid (lower) cells. The total number of cells is expressed as a percentage of the number of each cell type in the control (untreated/shLuc/NT). […] Statistics: two-tailed Student's t test, significant *P<0.05
For NLK kinase analysis, cultures were treated as indicated and lysed for 30 min at 4° C. in 750 μl of kinase lysis buffer (50 mM Tris [pH 7.4], 5 mM EDTA, 250 mM NaCl, 0.1% Triton X-100, 50 mM NaF, 0.1 trypsin inhibitor unit of aprotinin per ml, 50 μg of phenylmethylsulfonyl fluoride per ml, 100 μM sodium vanadate, 1 μg of leupeptin per ml).

[1] = panel assessed at 0.1, 1 and 10 μM, compared with TGFβR1 at 1 μM

SMILES: Cc1cccc(-c2nn3c(c2-c2ccnc4ccc(C(N)=O)cc24)CCC3)n1 [Galunisertib]
- inhibition at 1 µM [1]: 40 to 45%

SMILES: NC(=O)c1ccc(-c2nc(-c3ccc4c(c3)OCO4)c(-c3ccccn3)[nH]2)cc1 [SB431542]
- inhibition at 1 µM [1]: ~55%

SMILES: CC(C)=CCC[C@](C)(O[C@@H]1O[C@H](CO[C@@H]2O[C@H](CO)[C@@H](O)[C@H](O)[C@H]2O)[C@@H](O)[C@H](O)[C@H]1O)[C@H]1CC[C@]2(C)[C@@H]1[C@H](O)C[C@@H]1[C@@]3(C)CC[C@H](O[C@@H]4O[C@H](CO)[C@@H](O)[C@H](O)[C@H]4O[C@@H]4O[C@H](CO)[C@@H](O)[C@H](O)[C@H]4O)C(C)(C)[C@@H]3CC[C@]12C [ginsenoside Rb1]
- inhibition of NLK kinase activity in vitro (substrates Raptor, c-Myb, NLK): failed to inhibit

Other lines, results leading:

- NLK activity with compound added to activated NLK in in vitro kinase assay: robustly inhibited
- inhibition of NLK phosphorylating NLK (5 μM): 84.3%
- inhibition of NLK phosphorylating Raptor (5 μM): 89.1%
- inhibition of NLK phosphorylating c-Myb (5 μM): 79.7%
- inhibition of NLK activity in vitro [1]: approximately 80%
SMILES: Fc1ccc(Cl)cc1-c1nc(Nc2ccncc2)c2nccnc2n1 [SD208]

- NLK activity with compound added to activated NLK in in vitro kinase assay: did not influence
SMILES: CN(C)C(=N)N=C(N)N [metformin]
